Results on 4 compounds are retold here after ChEMBL document CHEMBL1152926, “Terpenoid constituents of Abies chensiensis with potential anti-inflammatory activity” (J Nat Prod, 2009).

The test system of assay [1] is RAW264.7. As to the kind of experiment: Antiinflammatory activity in mouse RAW264.7 cells assessed as inhibition of LPS-induced nitric oxide production. In kind it is functional, cell-based.
For assay [2], the system named is RAW264.7. As to the kind of experiment: Cytotoxicity against mouse RAW264.7 cells. In kind it is cell-based.

≈ marks a conversion by molar mass, not a printed value.

As to `C=C[C@@](C)(O)[C@H]1C[C@@H]2[C@@]3(C)CCCC(C)(C)[C@@H]3CC[C@@]2(C)O1`, the IC50 is 1.9 µg/mL (≈ 6.2 µM) with RAW264.7 [1] and 0.6 µg/mL (≈ 1.96 µM) in the assay with RAW264.7 [2].
For the compound `C=C[C@@](C)(O)CC[C@H]1C(=C)CC[C@H]2C(C)(C)CCC[C@]12C` [MANOOL], the IC50 in the assay with RAW264.7 [1] amounted to 9.6 µg/mL (≈ 33 µM); in the assay with RAW264.7 [2] it was 32.3 µg/mL (≈ 111 µM).
Take `CC1=CC(O)(C[C@@H](C)C2=CC[C@@]3(C)C4=C(CC[C@]23C)[C@@]2(C)CCC(=O)C(C)(C)[C@@H]2CC4)OC1=O` (some centres not stated) [NEOABIESLACTONE E]: the figures for the IC50 in the assay on RAW264.7 [1] and in the assay on RAW264.7 [2] were 9.1 µg/mL (≈ 19.5 µM) and 20 µg/mL (≈ 42.9 µM), respectively.
On to `N=C(N)NN` [PIMAGEDINE], for which, in the assay on RAW264.7 [1], the half-inhibitory concentration (IC50) was 3.4 µg/mL (≈ 45.9 µM).

One may read the IC50 as the midpoint of a concentration-inhibition curve.
